Source: paper PMC9698773, “Design, Synthesis, Molecular Modeling, and Anticancer Evaluation of New VEGFR-2 Inhibitors Based on the Indolin-2-One Scaffold” (Pharmaceuticals, 2022)
“And” between values parts separate entries of the source, which are not always exact repeats. Identical values can stand only once.

Experiments:
Format in all cases: cell-based, human
HepG2 cells = assay: Cell cycle analysis (PI staining, flow cytometry); conditions: HepG2, 1.13 µM, 24 h
Protocol: The liver HepG2 cells were treated with 1.13 μM of 17a, and the effect on the cell cycle distribution was evaluated by flow cytometric analysis, as described in the Supplementary Materials. […]
(§1) 4.2.3. Cell cycle analysis
To determine the role of the synthesized compounds in cell cycle distribution, cell cycle analysis was performed using propidium iodide (PI) staining and flow cytometry analysis for compound 17a. A Flow Cytometry Kit for Cell Cycle Analysis (ab139418_Pro‐ pidium Iodide Flow Cytometry Kit/BD) was used in this test. HepG2 cells were treated with compound 17a (1.13 μM) for 24 h. Then, the cells were fixed in 70% ethanol at 4 °C for 12 h. After that, the cells were washed with cold PBS, incubated with 100 μl RNase A at 37 °C for 30 min, and stained with 400 μ l PI in the dark at room temperature for a further 30 min. The stained cells were measured using a BD FACSCalibur™ Flow Cytometer, and the data were analyzed using Flowing software (version 2.5.1, Turku Centre for Biotech‐

caspase-3 = assay: Caspase-3 expression assay (quantitative real-time PCR); conditions: HepG2, 1.13 µM, 24 h; control = 1
Protocol: (§2) The gene expression fold change of caspase-3 and -9 in the HepG2 cells treated with 1.13 µM of compound 17a for 24 h was determined using quantitative real-time PCR analysis.
(§3) The expression of caspase-3 and -9 in the liver HepG2 cells treated with 1.13 μM of 17a was determined using quantitative real-time PCR analysis, as presented in the Supplementary Materials.
(§4) Pharmaceuticals 2022, 15, x FOR PEER REVIEW 3 of 22
(§5) Figure S1. Simple linear regression for the correlation between cytotoxicity against HepG2 cell line […]
(§6) Figure S2. Simple linear regression for the correlation between cytotoxicity against MCF‐7 cell line […]
as §1
(§7) To determine the role of the synthesized compounds in cell cycle distribution, cell cycle analysis was performed using propidium iodide (PI) staining and flow cytometry analysis for compound 17a. […] The stained cells were measured using a BD FACSCalibur™ Flow Cytometer, and the data were analyzed using Flowing software (version 2.5.1, Turku Centre for Biotech‐ […]
(§8) Flow cytometry cell apoptosis analysis was used to investigate the apoptotic effect of the synthesized compounds. […] The stained cells were measured using a BD FACSCalibur™ Flow Cytometer and analyzed using Flowing software. […]
(§9) The expression of BAX and Bcl‐2 proteins were determined using Western blot anal‐ ysis. […]

caspase-9 = assay: Caspase-9 expression assay (quantitative real-time PCR); conditions: HepG2, 1.13 µM, 24 h; control = 1
Protocol: as §2, §3, §4, §5, §6, §1, §7, §8, §9

O=C1Nc2ccccc2C1=Nc1ccc(C(=O)NNC(=S)Nc2ccccc2)cc1 [Compound 17a, 2-(4-((2-Oxoindolin-3-ylidene)amino)benzoyl)-N-phenylhydrazinecarbothioamide]
Cell Cycle Distribution %G0-G1 (HepG2 cells): 42.91%
Cell Cycle Distribution %G2/M (HepG2 cells): 9.07%
Cell Cycle Distribution %S (HepG2 cells): 48.02%
Cell Cycle Distribution %pre G1 (HepG2 cells): 46.38%
increase of cell population at S phase versus control (HepG2 cells): 1.43 fold
phase of cell cycle arrest (HepG2 cells): S phase
Gene Expression Fold Change (Normalized to β-Actin) Caspases-3 (caspase-3): 6.88 fold and 6.9 fold and 6.889 fold
Gene Expression Fold Change (Normalized to β-Actin) Caspases-9 (caspase-9): 3.7 fold and 3.703 fold
